Results from the NIST ThermoML archive (doi:10.1016/j.jct.2014.08.018).
Values joined by “and” are separate entries in the source; they are usually repeats but may differ in a detail not shown here. Equal entries are not always repeated. Numbers after ± are expanded uncertainties.

Details: 101.33 kPa, Liquid; for mass density: Vibrating tube method; for viscosity: Capillary tube (Ostwald / Ubbelohde) method

CCCCCC[n+]1ccn(C)c1.O=S(=O)([N-]S(=O)(=O)C(F)(F)F)C(F)(F)F
mass density (288.15 K): 1381.3 ± 1.5 kg/m3 | viscosity (288.19 K): 115.89 ± 2.8 mPa·s and 115.81 ± 3.1 mPa·s | viscosity (298.12 K): 69.47 ± 1.5 mPa·s and 69.62 ± 1.7 mPa·s | mass density (298.15 K): 1372.2 ± 1.5 kg/m3 | viscosity (308.05 K): 44.87 ± 0.94 mPa·s | viscosity (308.11 K): 44.86 ± 1.1 mPa·s | mass density (308.15 K): 1363 ± 1.5 kg/m3 | viscosity (317.95 K): 30.77 ± 0.74 mPa·s | viscosity (318.07 K): 30.77 ± 0.65 mPa·s | mass density (318.15 K): 1353.9 ± 1.4 kg/m3 | viscosity (328.08 K): 21.92 ± 0.46 mPa·s and 21.92 ± 0.52 mPa·s | mass density (328.15 K): 1344.9 ± 1.4 kg/m3

CCCCn1cc[n+](C)c1.N#CN=C=[N-] [1-butyl-3-methylimidazolium dicyanamide]
mass density (288.15 K): 1066.9 ± 1.1 kg/m3 | viscosity (288.17 K): 45.86 ± 0.96 mPa·s | viscosity (288.22 K): 45.82 ± 1.4 mPa·s | viscosity (298.11 K): 30.15 ± 0.63 mPa·s and 30.15 ± 0.93 mPa·s | mass density (298.15 K): 1060.5 ± 1.1 kg/m3 | viscosity (308.05 K): 20.91 ± 0.44 mPa·s | viscosity (308.12 K): 20.94 ± 0.64 mPa·s | mass density (308.15 K): 1054.2 ± 1.1 kg/m3 | viscosity (318.05 K): 15.21 ± 0.47 mPa·s | viscosity (318.06 K): 15.19 ± 0.32 mPa·s | mass density (318.15 K): 1047.9 ± 1.1 kg/m3 | viscosity (328.05 K): 11.56 ± 0.36 mPa·s | viscosity (328.08 K): 11.55 ± 0.24 mPa·s | mass density (328.15 K): 1041.7 ± 1.1 kg/m3

CCCCCCCCCCCCCC[P+](CCCCCC)(CCCCCC)CCCCCC.N#C[N-]C#N [tetradecyl(trihexyl)phosphonium dicyanamide]
mass density (288.15 K): 903.4 ± 0.9 kg/m3 | viscosity (288.17 K): 665.15 ± 30 mPa·s | viscosity (288.31 K): 664.13 ± 34 mPa·s | viscosity (298.07 K): 362.32 ± 16 mPa·s | viscosity (298.11 K): 362.9 ± 13 mPa·s | mass density (298.15 K): 897.6 ± 0.9 kg/m3 | viscosity (308.05 K): 210.07 ± 6.4 mPa·s | viscosity (308.09 K): 210.09 ± 8.3 mPa·s | mass density (308.15 K): 891.9 ± 0.9 kg/m3 | viscosity (318.01 K): 129.78 ± 4.6 mPa·s | viscosity (318.06 K): 129.77 ± 3.3 mPa·s | mass density (318.15 K): 886.3 ± 0.9 kg/m3 | viscosity (328.03 K): 83.95 ± 2.8 mPa·s | viscosity (328.08 K): 83.81 ± 1.9 mPa·s | mass density (328.15 K): 880.7 ± 0.9 kg/m3
